Results reported in ChEMBL document CHEMBL2375247, “Synthesis and evaluation of 3-(benzylthio)-5-(1H-indol-3-yl)-1,2,4-triazol-4-amines as Bcl-2 inhibitory anticancer agents” (Bioorg Med Chem Lett, 2013).

Columns and labels:
Jurkat = assay: Cytotoxicity against human Jurkat cells after 24 hrs by CellTitre-Blue assay; type: functional, cell-based
HeLa = assay: Cytotoxicity against human HeLa cells after 72 hrs by MTT assay; type: functional, cell-based
[1] = Cytotoxicity against human KG1a cells after 24 hrs by CellTitre-Blue assay; type: functional, cell-based; conditions: KG-1a
MDA-MB-231 = assay: Cytotoxicity against human MDA-MB-231 cells after 72 hrs by MTT assay; type: functional, cell-based; conditions: MDA-MB-231, 72 h
[2] = biological target: Apoptosis regulator Bcl-2 (Homo sapiens, UniProt P10415); assay: Competitive binding affinity to his-tagged Bcl-2 (unknown origin) after 1 hr by ELISA in presence of Bim peptide
Chain of Apoptosis regulator Bcl-2 (P10415 whole entry): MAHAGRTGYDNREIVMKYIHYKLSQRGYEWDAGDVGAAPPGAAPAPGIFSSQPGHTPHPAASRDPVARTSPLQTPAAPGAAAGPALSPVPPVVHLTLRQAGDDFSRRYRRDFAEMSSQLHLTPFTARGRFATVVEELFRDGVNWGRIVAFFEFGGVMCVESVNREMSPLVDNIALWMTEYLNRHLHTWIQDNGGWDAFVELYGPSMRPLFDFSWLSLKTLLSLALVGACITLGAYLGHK

Row | SMILES | IC50 (Jurkat) [µM] | IC50 (HeLa) [µM] | IC50 [1] [µM] | IC50 (MDA-MB-231) [µM] | IC50 [2] [µM]
1 | Cc1ccc(CSc2nnc(-c3c[nH]c4ccccc34)n2N)cc1 | > 100 | 5.38 | > 100 | 10.5 | 
2 | Nn1c(SCc2ccc(F)cc2)nnc1-c1c[nH]c2ccccc12 | > 100 | 0.29 | 13.2 | 1.35 | 
3 | COc1ccc(CSc2nnc(-c3c[nH]c4ccccc34)n2N)cc1 | > 100 | 0.75 | > 100 | 1.7 | 
4 | Nn1c(SCc2ccccc2)nnc1-c1c[nH]c2ccccc12 | > 100 | 2.3 | 17.2 | 26.5 | 
5 | Nn1c(SCc2ccc([N+](=O)[O-])cc2)nnc1-c1c[nH]c2ccccc12 | > 100 | 0.25 | 6.9 | 0.74 | 
6 | Nn1c(SCc2cccc([N+](=O)[O-])c2)nnc1-c1c[nH]c2ccccc12 | > 100 | 0.4 | 0.65 | 0.31 | 1.43
7 | Nn1c(SCc2ccccc2[N+](=O)[O-])nnc1-c1c[nH]c2ccccc12 | > 100 | 2.52 | 20.8 | 9.52 | 
8 | COc1cccc(CSc2nnc(-c3c[nH]c4ccccc34)n2N)c1 | > 100 | 1.73 | 12.9 | 15.6 | 
9 | Nn1c(SCc2ccc(Br)cc2)nnc1-c1c[nH]c2ccccc12 | > 100 | 8 | 55.8 | 71.4 | 
